{
  "source": "patent US20180360964A1",
  "about": "“PHARMACEUTICAL COMPOSITION AND A METHOD FOR PRODUCING THEREOF” (priority 2017, published 2018)",
  "key": {"[1]": {"assay": "Interaction efficiency of drugs with apatite-based matrix (HPLC)", "format": "physicochemical", "design": "concentration or dose not given beside the values", "settings": "for Interaction efficiency (%) of each drug with apatite-based matrix: Table 1, mean±SD, triplicate", "method": "Apatite-based matrix as prepared above was allowed to interact with three types of drugs including cyclophosphamide (Cyp), methotrexate (Mtx) and 5-fluorouracil (5-FU) to form complexes. The complexes were then centrifuged at 13,000 rpm for 15 min and supernatant was discarded without disturbing the pellet. 100 μL of media was added to pellet to form a suspension and the suspension was used to perform high performance liquid chromatography (HPLC) analysis to estimate the concentration of drugs that could be adsorbed to the apatite-based matrix and also to evaluate the interaction efficiency of drugs with apatite-based matrix. The concentration of the drugs present in the supernatant was calculated from the peak area, using the standard curves. Data were represented as interaction efficiency (%) of drugs with apatite-based matrix, calculated using the following formula: […]\nWhere [X]free drug and [X]CA-drug are the concentrations of free drug and drug-loaded apatite-based matrix in the supernatant calculated form the standard curves and [X]initial is the total concentration of drugs used to perform HPLC or the total concentration initially mixed for preparation of apatite-drug formulations. Each experiment was done in triplicate and shown as mean±SD.\n(7) Ca^2+ and Sr^2+ Effects of Ca^2+ and Sr^2+ on apatite-based matrix formation were analysed by adding exogenous CaCl2 and SrCl2 in apatite-based matrix fabrication respectively, while keeping other salts being constant. The size of the apatite-based matrix formed with exogenous CaCl2 and SrCl2 were measured, followed by evaluation on the interaction efficiency (%) of apatite-based matrix with drugs which is indicated in Table 2."}, "[2]": {"assay": "Cellular uptake of Dox-loaded CA NPs and CMCA NPs", "format": "cell-based", "excerpt": "Further, the interaction between CMCA NP and the drug i.e. doxorubicin (denoted briefly as Dox) was studied by comparing the size and binding affinity of CA NP and CMCA NP that were loaded with Dox. The positively charged DOX might bind electrostatically with negatively charged domains (rich in bicarbonate, phosphate or citrate) on CMCA NP and CA NP, causing the net charge of the DOX-loaded CMCA NPs and CA NPs more electropositive than that of the free NPs, as shown in FIGS. 28 (b) and (d). […] In addition, the evaluation on cellular uptake of Dox-loaded CA NPs and CMCA NPs was performed after 1 hour and 4 hours of treatment."}, "MCF7 cell line": {"system": "MCF7 cell line", "assay": "Time-dependent cellular uptake by HPLC", "format": "cell-based", "method": "HPLC was performed to determine time-dependent cellular uptake (%) of pharmaceutical composition and also drug-loaded unmodified apatite-based matrix in MCF7 cell line. Apatite-based matrix was formulated with different Ca^2+ concentrations (7 mM, 8 mM and 9 mM) and 20 uM of drug. Free drug (20 uM) was used as control."}, "[3]": {"assay": "Concentration of detected drug accumulated in tumour after intravenous delivery", "format": "in vivo, mouse", "settings": "gemcitabine accumulated in tumour, 4T1-induced breast tumour mice", "method": "4T1 cells were inoculated subcutaneously on the mammary pad of mice. […] The injections were intravenously administered twice within an interval of 3 days to a 4T1 cancer cells-induced syngeneic mouse model of breast cancer. Measurements on tumour volume at day 8, 10, 12, 14, 16, 18, 20 and 22 were taken. The concentration of detected drug in tumour were also measured, followed by observation on bio-distribution of drugs in each organ. Six mice per group were used and data were represented as mean±SD of tumour volume."}},
  "data": [
    {"smiles": "O=c1[nH]cc(F)c(=O)[nH]1", "note": "[5-FU, 5-fluorouracil]", "values": [
      {"measurement": "Interaction efficiency (%) of each drug with apatite-based matrix", "setting": "[1]", "result": 0, "unit": "%"},
      {"measurement": "Interaction efficiency (%) of each drug with apatite-based matrix", "setting": "[1]; listed as 5-fluorouracil (5-FU)", "result": "did not show any affinity"},
      {"measurement": "Interaction efficiency (%) of each drug with the apatite-based matrix", "setting": "[1]; matrix formed with CaCl2", "result": 0, "unit": "%"},
      {"measurement": "Interaction efficiency (%) of each drug with the apatite-based matrix", "setting": "[1]; matrix formed with SrCl2", "result": "1.21 ± 0.56", "unit": "%"}
    ]},
    {"smiles": "O=P1(N(CCCl)CCCl)NCCCO1", "note": "(stereo not drawn) [Cyp, cyclophosphamide]", "values": [
      {"measurement": "Interaction efficiency (%) of each drug with apatite-based matrix", "setting": "[1]", "result": "13.10 ± 5.47", "unit": "%"},
      {"measurement": "Interaction efficiency (%) of each drug with the apatite-based matrix", "setting": "[1]; matrix formed with CaCl2", "result": "13.10 ± 5.47", "unit": "%"},
      {"measurement": "Interaction efficiency (%) of each drug with the apatite-based matrix", "setting": "[1]; matrix formed with SrCl2", "result": "11.19 ± 8.16", "unit": "%"}
    ]},
    {"smiles": "COc1cccc2c1C(=O)c1c(O)c3c(c(O)c1C2=O)C[C@@](O)(C(=O)CO)C[C@@H]3O[C@H]1C[C@H](N)[C@H](O)[C@H](C)O1", "note": "[DOX, doxorubicin]", "values": [
      {"measurement": "% Cellular uptake 1 hour of treatment", "setting": "[2]; DOX 1 μM", "result": "22.4% ± 1.73"},
      {"measurement": "% Cellular uptake 4 hours of treatment", "setting": "[2]; DOX 1 μM", "result": "31.71% ± 5.92"},
      {"measurement": "% Cellular uptake 1 hour of treatment", "setting": "[2]; DOX 5 μM", "result": "24.75% ± 0.14"},
      {"measurement": "% Cellular uptake 4 hours of treatment", "setting": "[2]; DOX 5 μM", "result": "32.07% ± 0.82"}
    ]},
    {"smiles": "CC(C)(C#N)c1cc(Cn2cncn2)cc(C(C)(C)C#N)c1", "note": "[Free anastrozole, anastrozole]", "values": [
      {"measurement": "cellular uptake (%)", "setting": "MCF7 cell line; anastrozole 20 uM, 1 h", "result": "18.5% ± 2.4"},
      {"measurement": "cellular uptake (%)", "setting": "MCF7 cell line; anastrozole 20 uM, 4 h", "result": "47.75% ± 2.3"},
      {"measurement": "cellular uptake (%)", "setting": "MCF7 cell line; anastrozole 20 uM, 24 h", "result": "89.5% ± 3"}
    ]},
    {"smiles": "Nc1ccn([C@@H]2O[C@H](CO)[C@@H](O)C2(F)F)c(=O)n1", "note": "[Free gemcitabine, gemcitabine]", "values": [
      {"measurement": "cellular uptake (%)", "setting": "MCF7 cell line; gemcitabine 20 uM, 1 h", "result": "30.5% ± 1.2"},
      {"measurement": "cellular uptake (%)", "setting": "MCF7 cell line; gemcitabine 20 uM, 4 h", "result": "50.75% ± 2.3"},
      {"measurement": "cellular uptake (%)", "setting": "MCF7 cell line; gemcitabine 20 uM, 24 h", "result": 100, "unit": "%"},
      {"measurement": "Detected Drug Concentration (ng/ml)", "setting": "[3]", "result": "27,03333 ng/ml"}
    ]},
    {"smiles": "CN(Cc1cnc2nc(N)nc(N)c2n1)c1ccc(C(=O)N[C@@H](CCC(=O)O)C(=O)O)cc1", "note": "[Mtx, methotrexate]", "values": [
      {"measurement": "Interaction efficiency (%) of each drug with apatite-based matrix", "setting": "[1]", "result": "1.73 ± 0.85", "unit": "%"},
      {"measurement": "Interaction efficiency (%) of each drug with the apatite-based matrix", "setting": "[1]; matrix formed with CaCl2", "result": "1.73 ± 0.85", "unit": "%"},
      {"measurement": "Interaction efficiency (%) of each drug with the apatite-based matrix", "setting": "[1]; matrix formed with SrCl2", "result": "27.76 ± 5.62", "unit": "%"}
    ]}
  ]
}
